Laboratory results reported in KR20120090118A, “자귀나무 추출물을 포함하는 항암 또는 항암 보조용 조성물” (학교법인 동의학원, priority 2010, dated 2012).

Experiments:
[1] = system: mouse liver or kidney [마우스의 간이나 신장]; test: Safety in mice: histological signs of toxicity in liver or kidney (in vivo sarcoma experiment); details: up to 100mg/kg
[2] = system: human Jurkat T cells [Human Jurkat T세포]; test: Combination of Julibroside III and doxorubicin: cytotoxicity (MTT assay, 48 h) and FIC in Jurkat T cells; format: cell-based
[3] = doxorubicin and Julibroside III used in combination

| SMILES | histological signs of toxicity in liver or kidney [1] | IC50 [2, 3] [µg/mL] | IC50 ([2]; treated alone) [µg/mL] |
| --- | --- | --- | --- |
| C=C[C@](C)(CC/C=C(\C)C(=O)O[C@H]1[C@H](O)[C@@H](O)[C@H](O[C@](C)(C=C)CC/C=C(\C)C(=O)O[C@H]2C[C@]3(C(=O)O[C@@H]4O[C@H](CO)[C@@H](O)[C@H](O)[C@H]4O[C@@H]4O[C@@H](C)[C@H](O[C@@H]5O[C@@H](CO)[C@H](O)[C@H]5O)[C@@H](O[C@@H]5O[C@H](CO)[C@@H](O)[C@H](O)[C@H]5O)[C@H]4O)[C@H](O)C[C@]4(C)C(=CC[C@@H]5[C@@]6(C)CC[C@H](O[C@@H]7O[C@H](CO[C@@H]8O[C@H](C)[C@H](O)[C@H](O)[C@H]8O[C@@H]8OC[C@@H](O)[C@H](O)[C@H]8O)[C@@H](O)[C@H](O)[C@H]7NC(C)=O)C(C)(C)[C@@H]6CC[C@]54C)[C@@H]3CC2(C)C)O[C@@H]1C)O[C@@H]1O[C@H](C)[C@@H](O)[C@H](O)[C@H]1O [Julibroside III] | 징후가 전혀 없음 | 0.63 | 2.5 |
| COc1cccc2c1C(=O)c1c(O)c3c(c(O)c1C2=O)C[C@@](O)(C(=O)CO)C[C@@H]3O[C@H]1C[C@H](N)[C@H](O)[C@H](C)O1 [독소루비신, reference compound] | – | 0.16 | 0.31 |
